Results reported in US20230242641A1, “SLAMF7 CARS” (JULIUS-MAXIMILIANS-UNIVERSITÄT WÜRZBURG, priority 2020, published 2023).
Where two headings read alike, the source gives them in different places.

Legend:
MM.1S cells = conditions: cited from earlier work
CAR-T cell-induced CRS = conditions: 45 pediatric and adult patients; 31 patients; 95% CI: 53%-82%; cited from earlier work
SLAMF7 = conditions: cited from earlier work
[1] = test system: CD34+ hematopoietic stem cells; conditions: cited from earlier work
multiple myeloma = conditions: cited from earlier work
[2] = biological target: T1, mouse SLAMF7 molecule linked to a Twin-Strep Tag (mice, UniProt Q8BHK6 23-224, limits assumed); test: flow cytometry: LV-RP cells incubated with Twin-Strep tagged SLAMF7 of different species, stained with anti-Strep Tag antibody (FIG. 37)
T1 construct: also called SLAMF7 of mice; not shown: Twin-Strep Tag
Text: SLAMF7 molecules linked to a Twin-Strep Tag were stained by an anti-Strep Tag antibody.

## N[C@@H](Cc1ccc(N(CCCl)CCCl)cc1)C(=O)O [Melphalan]
MM.1S cells; after 48 hours of treatment
  eradication of MM.1S: less than 40%

## tocilizumab: recombinant humanized monoclonal antibody that blocks IL-6 from binding to its receptor
CAR-T cell-induced CRS
  patients achieving a response (resolution of CRS within 14 days of the first dose): 69%

## Nc1cccc2c1CN(C1CCC(=O)NC1=O)C2=O (stereo not drawn) [Lenalidomide]
MM.1S cells; after 72 hours of treatment
  eradication of MM.1S: about 40%

## CC(C)C[C@H](NC(=O)[C@H](Cc1ccccc1)NC(=O)c1cnccn1)B(O)O [Bortezomib]
MM.1S cells; after 72 hours of treatment
  eradication of MM.1S: less than 30%

## Elotuzumab: SLAMF7-specific monoclonal antibody huLuc63
MM.1S cells; after 72 hours of treatment
  eradication of MM.1S: less than 70%
SLAMF7
  species cross-reactivity: lack of species cross-reactivity
[1]
  binding to CD34+ hematopoietic stem cells: No binding
Multiple myeloma; after three years
  interim overall survival rate: 60%
Multiple myeloma; at one year after beginning of treatment, elotuzumab group vs control group (only Lenalidomid and dexmethason)
  rate of progression-free survival: 68%
Multiple myeloma; in vivo
  infection rate compared to the control group: No significant increase in the infection rate
  lymphocyte reduction after the initial infusion: 77%

B1: SLAMF7 binding chimeric antigen receptor (CAR) polypeptide, expressed on human T cells (other)
chain: EVQLVESGGGLVQPGGSLRLSCAASGFDFSRYWMSWVRQAPGKGLEWIGEINPDSSTINYAPSLKDKFIISRDNAKNSLYLQMNSLRAEDTAVYYCARPDGNYWYFDVWGQGTLVTVSSGGGGSGGGGSGGGGSDIQMTQSPSSLSASVGDRVTITCKASQDVGIAVAWYQQKPGKVPKLLIYWASTRHTGVPDRFSGSGSGTDFTLTISSLQPEDVATYYCQQYSSYPYTFGQGTKVEIKESKYGPPCPPCPAPPVAGPSVFLFPPKPKDTLMISRTPEVTCVVVDVSQEDPEVQFNWYVDGVEVHNAKTKPREEQFQSTYRVVSVLTVLHQDWLNGKEYKCKVSNKGLPSSIEKTISKAKGQPREPQVYTLPPSQEEMTKNQVSLTCLVKGFYPSDIAVEWESNGQPENNYKTTPPVLDSDGSFFLYSRLTVDKSRWQEGNVFSCSVMHEALHNHYTQKSLSLSLGKMFWVLVVVGGVLACYSLLVTVAFIIFWVRSKRSRGGHSDYMNMTPRRPGPTRKHYQPYAPPRDFAAYRSRVKFSRSADAPAYQQGQNQLYNELNLGRREEYDVLDKRRGRDPEMGGKPRRKNPQEGLYNELQKDKMAEAYSEIGMKGERRRGKGHDGLYQGLSTATKDTYDALHMQALPPR
notes: also called SLAMF7 CAR; SLAMF7-CAR
[2]
  binding result: no binding
